Test results reported in PMC12112476, “Mass Spectrometric ITEM-FOUR Analysis Reveals Coding Single-Nucleotide Polymorphisms in Human Cardiac Troponin T That Evade Detection by Sandwich ELISAs Which Use Monoclonal Antibodies M7 and M11.7 from the Elecsys Troponin T® Assay” (International Journal of Molecular Sciences, 2025).

What was measured:
Assay type in all cases: binding
[1] = test system: anti-TNFα antibody; test: Nano-ESI-MS negative control: epitope peptide mixed with an unrelated antibody; conditions: 200 mM ammonium acetate pH 6.7, peptide:antibody 13:1
Experimental: Negative controls were investigated to confirm specificity of in-solution complex formations. […] To further rule out non-specific interactions for epitope peptide P11 or epitope peptide P21, either of them was separately mixed with an unrelated anti-TNFα antibody (Figures S46 and S47).
The anti-TNFα antibody stock solution (2 µg/µL) was prepared from lyophilized antibody powder (article number: MAS: 23720, ThermoFisher Scientific) and 200 mM ammonium acetate (pH 6.7).
(§1) Antibody–peptide mixture solutions were prepared for ITEM FOUR experiments by mixing 5 µL of one antibody working solution with one assigned peptide working solution to generate antibody to peptide molar ratios of 1:2.1 for all solutions that contained the M7 antibody. For mixture solutions containing the M11.7 or the anti-TNFα antibody, 1:13 molar ratios were prepared. Antibodies were incubated together with peptides for at least one hour at room temperature prior to analysis.
Data acquisition for ITEM-FOUR experiments was performed as described in [18] with the Synapt G2S mass spectrometer (Waters MS-Technologies, Wilmslow, UK) and with the following instrumental settings: source temperature, 40 °C; capillary voltage, 1.0–1.3 kV; sample cone voltage, 130 V; source offset voltage, 130 V; trap gas flow (argon), 8.0 mL/min; helium gas: 20 bar. […] All measurements were recorded in duplicate. […]

[2] = test system: monoclonal anti-hcTnT antibody M7; test: ITEM-FOUR nano-ESI mass spectrometry: in-solution immune complex formation and gas-phase dissociation of M7 antibody–epitope peptide complexes; conditions: for in-solution immune complex formation with M7 (binding in words): nano-ESI-MS, 200 mM ammonium acetate pH 6.7, peptide:antibody 2.1:1 (epitope series) or 13:1 (negative controls); for dx (V): Boltzmann curve parameter; for dx (V) / ΔCV50 (V) / Slope (%/V): peptide:antibody 2.1:1; for dx (V) / ΔCV50 (V) / Final (%) / Initial (%) / Slope (%/V): averaged from two acquisitions; for KD m0g# [Ø]: apparent gas-phase dissociation constant, dimensionless number, extrapolated to ambient temperature; for Binding Type: class by difference of normalized product ion intensities over ΔCV; for ΔCV50 (V): collision cell voltage difference for 50% dissociation, Boltzmann fit; for Final (%): normalized product ion quantity at highest applied ΔCV, peptide:antibody 2.1:1, 200 mM ammonium acetate pH 6.7; for Initial (%): normalized product ion quantity at lowest applied ΔCV, peptide:antibody 2.1:1, 200 mM ammonium acetate pH 6.7, at least 1 h RT, nano-ESI, ΔCV 0-58 V; for ΔGm0g# / Tamb ΔSm0g# / ΔHm0g#: pseudo thermodynamic value of gas-phase complex dissociation; for ΔGm0g#: Ellingham diagram read at Tamb; for Tamb ΔSm0g# / ΔHm0g#: extrapolated to Tamb; for Slope (%/V): slope of Boltzmann curve
Experimental: (§2) Immune complex-containing solutions of a wild-type epitope peptide and its corresponding antibody, e.g., P11 and M7, were prepared by mixing the two components in 200 mM ammonium acetate buffer (pH 6.7), ensuring a molar excess of the epitope peptide over the antibody to achieve binding saturation. After an incubation period of one hour, the entire mixture (~3 µL) was loaded into a nano-ESI emitter and electrosprayed. The mass spectrometer was configured to transmit only ion signals with m/z values above 3850, effectively eliminating signals from the unbound peptide (Figure 1A).
as §1
(§3) Data acquisition for ITEM-FOUR experiments was performed as described in [18] with the Synapt G2S mass spectrometer (Waters MS-Technologies, Wilmslow, UK) and with the following instrumental settings: source temperature, 40 °C; capillary voltage, 1.0–1.3 kV; sample cone voltage, 130 V; source offset voltage, 130 V; trap gas flow (argon), 8.0 mL/min; helium gas: 20 bar. All mass spectra were acquired in positive-ion mode applying a mass window of m/z 200–8000. The quadrupole analyzer was used to block transmission of lower-molecular-mass ions: M1 = 5000 with dwell time of 25% and ramp time of 25%; M2 = 5000 with dwell time of 25% and ramp time of 25%; M3 = 5000. ΔCV in the TRAP collision cell was increased stepwise as follows: 0, 2, 6, 10, 14, 18, 22, 26, 30, 34, 40, 46, 52 and 58 V. The ion mobility separation mode was not used. All acquired scans during a given collision cell voltage difference setting were integrated to obtain an averaged spectrum from which ion intensities were extracted for ITEM-FOUR calculations. Data were acquired and processed with MassLynx software version 4.1 (Waters MS-Technologies). For exact time stamps of all measurements, refer to Table S2 in the Supplement (see also the deposited raw data supplement in the PRIDE directory). All mass spectra for each ΔCV setting were smoothed using the Savitzky-Golay method. Spectra of antibody solutions and antibody–peptide mixture solutions were smoothed using 30 cycles with a 15-mass unit window at the high mass end and at the low mass end with 3 cycles and a 2-mass unit window. All measurements were recorded in duplicate. The mass spectrometric raw data have been deposited via the ProteomeXchange Consortium in the PRIDE partner repository with the dataset identifier PXD058812 [70].
(§4) The Origin Pro 2023b (64-bit, OriginLab Corporation, Northampton, MA, USA) software package with an automation script for processing multiple datasets was used to graphically plot the extracted intensities of the ion signals of all relevant molecular entities (the immune complex with two bound peptides, the immune complex with one bound peptide, free antibodies, and free peptides) against their corresponding charge state for each collision cell voltage difference (ΔCV). Subsequently, Gaussian curve fittings were performed separately for each molecular entity. […] Iterations were performed for R2 values to be at least 0.91. Apices of Gaussian curves provided the intensities and the average m/z values for each molecular species. Intensity values of individual molecular entities (educts and products) were summed and normalized. Normalized intensities of educts and products from duplicate measurements were averaged.
(§5) The number of atoms from rituximab was used because the amino acid sequences of neither the M7 nor the M11.7 antibody were disclosed. […]

[3] = test system: monoclonal anti-hcTnT antibody M11.7; test: ITEM-FOUR nano-ESI mass spectrometry: in-solution immune complex formation and gas-phase dissociation of M11.7 antibody–epitope peptide complexes; conditions: for in-solution immune complex formation with M11.7 (binding in words): nano-ESI-MS, 200 mM ammonium acetate pH 6.7
Experimental: as §2, §1, §3, §4, §5

[4] = pseudo thermodynamic value of gas-phase complex dissociation, extrapolated to Tamb

Sequence	in-solution immune complex formation with anti-TNFα antibody [1]	in-solution immune complex formation with M7 (binding in words) [2]	in-solution immune complex formation with M11.7 (binding in words) ([3]; peptide:antibody 13:1)	dx (V) [2] [V]	KD m0g# [Ø] [2]	Binding Type [2]	ΔCV50 (V) [2] [V]	Final (%) [2] [%]	Initial (%) [2] [%]	ΔGm0g# [2] [kJ/mol]	Tamb ΔSm0g# [2] [kJ/mol]	ΔHm0g# [2] [kJ/mol]	Slope (%/V) [2] [%/V]	other results
AEQQRIRNEREKERQ [Peptide P21]	No immune complex signals were observed	no immune complexes were detected	–	–	–	–	–	–	–	–	–	–	–	dx (V) ([3]; Boltzmann curve parameter, peptide:antibody 13:1, averaged from two acquisitions): 5.77 V; KD m0g# [Ø] ([3]; apparent gas-phase dissociation constant, dimensionless number, extrapolated to ambient temperature): 0.92 Ø; Binding Type ([3]; class by difference of normalized product ion intensities over ΔCV): orthodox (The differences in normalized product ion intensity values were always greater than 15 percentage points); ΔCV50 (V) ([3]; collision cell voltage difference for 50% dissociation, Boltzmann fit, peptide:antibody 13:1, averaged from two acquisitions): 12.77 V; Final (%) ([3]; normalized product ion quantity at highest applied ΔCV, peptide:antibody 13:1, 200 mM ammonium acetate pH 6.7, averaged from two acquisitions): 96.29%; Initial (%) ([3]; normalized product ion quantity at lowest applied ΔCV, peptide:antibody 13:1, 200 mM ammonium acetate pH 6.7, at least 1 h RT, nano-ESI, ΔCV 0-58 V, averaged from two acquisitions): 56.91%; ΔGm0g# ([3]; pseudo thermodynamic value of gas-phase complex dissociation, Ellingham diagram read at Tamb): 0.21 kJ/mol; Tamb ΔSm0g# [3, 4]: 72.32 kJ/mol; ΔHm0g# [3, 4]: 72.53 kJ/mol; Slope (%/V) ([3]; slope of Boltzmann curve, peptide:antibody 13:1, averaged from two acquisitions): 1.71 %/V
GPSIVHRKSFHHHHHH [His-tag peptide, unrelated His-tag peptide used as negative control, reference compound]	–	did not produce any immune complexes	did not produce any immune complexes	–	–	–	–	–	–	–	–	–	–	–
LVSLKDRIERRQAER [Peptide P17]	–	–	–	6.46	0.62 Ø	orthodox (The differences in normalized product ion intensity values were always greater than 15 percentage points)	24.61	82.69	56.18	1.14	36.92	38.06	1.03	–
LVSLKDRIERRRAER [Peptide P11]	No immune complex signals were observed	–	no immune complexes were detected	6.69	0.59 Ø	orthodox (The differences in normalized product ion intensity values were always greater than 15 percentage points)	25.27	84.36	56.43	1.28	38.96	40.25	1.04	–
LVSLKDRIERRWAER [Peptide P14]	–	–	–	4.33	0.28 Ø	orthodox (The differences in normalized product ion intensity values were always greater than 15 percentage points)	18.02	93.86	54.37	3.13	88.96	92.09	2.28	–
LVSLKDRIKRRRAER [Peptide P12]	–	no immune complex had formed in solution	–	–	–	non-binding (The differences in normalized product intensity values were less than 5 percentage points)	–	92.28	89.38	–	–	–	–	in-solution immune complex formation with M7 (binding in words) ([2]; listed as E138K): disrupted binding
